Experimental data as given in US10851069B2, “Compositions of crystallized hydrophobic compounds and methods of making and using same” (Massachusetts Institute of Technology, priority 2016, dated 2020).

Key:
[1] = tested on: host (mouse) alpha smooth muscle actin (αSMact); assay: qPCR of explanted capsules, host fibrosis marker; assay type: in vivo; conditions: explanted at approximately 430 (amorphous) or 460 (crystalline) days post-transplant
Source text: Total RNA was isolated from fibrosed spheres (with adhered tissue and immune overgrowth, if present), liquid nitrogen snap-frozen immediately following excision, using TRIzol (Invitrogen, Carlsbad, Calif.) according to the manufacturer's instructions. In addition, to help ensure complete tissue disruption, we also employed strong mechanical disruption with a Polytron homogenizer. Thus, gene expression signatures shown throughout are proportional and representative of the entire cell population present on and/or around retrieved materials. […] Mouse (5′-[…]-3′ (SEQ. ID. No.:1); reverse: 5′-CGGGTTCCGCTGTGTAAG-3′ (SEQ. ID. No.:2)) and rat (5′-CTCTCGTGCCATGTGAACC-3′ (SEQ. ID. No.:3); reverse: 5′-[…]-3′ (SEQ. ID. No.:4)) Pdx1 primers were designed using Primer Express software (Applied Biosystems, Carlsbad, Calif., USA) and evaluated using LaserGene software (DNAStar, Madison, Wis., USA) to ensure species rat (encapsulated islet) or mouse (host)-specificity, and normalized to mouse (5′-[…]-3′ (SEQ. ID. No.:5); reverse: 5′-[…]-3′ (SEQ. ID. No.:6)) and rat (5′-[…]-3′ (SEQ. ID. No.:7); reverse: 5′-[…]-3′ (SEQ. ID. No.:8)) Beta-actin, respectively. […] Results were analyzed using the comparative CT (ΔΔCT) method as described by the manufacturer. […]

[2] = tested on: inflammatory macrophage markers Sphk1, TNFα, Arg1, IL1; assay: NanoString multiplexed gene expression analysis of retrieved capsules; assay type: in vivo, C57BL/6 mice; conditions: amorphous drug-loaded capsules, 2 weeks IP; CSF1R-targeting agents compared
Protocol: RNAs for mock-implanted (mock) controls, or for various drug-loaded 0.5 mm diameter alginate sphere-bearing mice (n=4/group) were isolated from tissue samples taken at various time points after implantation, as described. Respective RNAs were quantified, diluted to the appropriate concentration (100 ng/μl), and then 500 ng of each sample was processed according to NanoString manufacturer protocols for expression analysis via our customized multiplexed gene mouse macrophage subtyping panel. RNA levels (absolute copy numbers) were obtained following nCounter (NanoString Technologies Inc., Seattle, Wash.) quantification, and group samples were analyzed using nSolver analysis software (NanoString Technologies Inc., Seattle, Wash.).

[3] = In vitro drug release from alginate capsules loaded with crystalline or amorphous formulations; assay type: physicochemical; conditions: accelerated release conditions (+ SDS)
Protocol: Release study was carried out in 3 different media, a normal saline-Isopropyl alcohol (10%) mixture, a phosphate buffer (pH 7.4), or for accelerated condition with phosphate buffered saline (pH 7.4) either with 0.1% w/v or 03% w/v SDS. Release study at NS+10% IPA was carried out in 2 ml medium at 37° C. Sampling was carried out by replacement of 1.5 ml of release medium by total replacement of release medium with fresh medium. […] For release in accelerated condition (PBS+SDS), the same time points were followed while 20 μl of drug loaded capsules were incubated in 2 ml release medium to achieve sink conditions. Drug concentration in samples was measured by reverse phase HPLC on C-18 column with a mobile phase or using UV calibrated system. An isocratic mode was set at a flow rate of 0.5-2 ml/min and a different wave-length of nm and 20-50 μl of samples was injected into an HPLC system (Waters, LC-Module-I) or UV analyzed. Calibration curves were prepared in concentration range of 0.05-10 μg/ml. Using prepared calibration curves, drugs concentration in different release samples were calculated.

For `COc1ccc(COc2ccc(Cc3cnc(N)nc3N)cc2OC)cc1` [GW2580, 5-[[3-Methoxy-4-[(4-methoxyphenyl)methoxy]phenyl]methyl]-2,4-pyrimidinediamine], the “lower αSMact expression, crystal versus amorphous capsules” value [1] was 74%, the gene expression responses [2] was “almost identical gene expression responses” and the drug release profile ([3]; amorphous form in 2000 μm alginate capsules) was “Higher drug release”. The drug release profile ([3]; pure crystalline formulations in 2000 μm alginate capsules) was “released the drug more slowly initially, but continued releasing drugs for a much longer period of time”.
